Laboratory results as given in patent US20070238700A1, “N-PHENYL-1,1,1-TRIFLUOROMETHANESULFONAMIDE HYDRAZONE DERIVATIVE COMPOUNDS AND THEIR USAGE IN CONTROLLING PARASITES” (priority 2006, published 2007).
Read-outs that look alike come from different tables or passages of the source.

Tests used:
[1] = tested on: Haemonchus contortus; assay: Haemonchus contortus larvacidal assay (larval development, LD99)
Procedure: a) Haemonchus Contortus Larvacidal Assay:
The effect of compounds on larval development was determined in the assay described by Gill et al., (1995, International Journal of Parasitology 25:463-470). Briefly, in this assay, nematode eggs were applied to the surface of an agar matrix containing the test compound and then allowed to develop through to the L3, infective stage (6 days). The wells for each dilution of every compound (from highest to lowest concentration) were inspected to determine the well number corresponding to the lowest concentration at which development was inhibited in 99% of the nematode larvae present (LD99). Because well numbers correspond to a two-fold serial dilution of each compound, a titre (dilution factor) is generated as 2n^−1, where n is the well number. By dividing the highest concentration tested by the titre an LD99 value can be obtained, representing the concentration required to inhibit development in 99% of the nematode larvae present. The compounds supplied as solid and viscous liquids were dissolved in DMSO. Twelve serial one-half dilutions in DMSO solution were prepared from the stock solution, each of which was then diluted ⅕ with water. Aliquots (10 μl) of each dilution were transferred to the bioassay plates to give a final concentration range of 0.024 to 50 μg/ml.

[2] = tested on: Ctenocephalides felis
Outline: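 Adult cat fleas (3–7 days post-emergence), 15 per flask in ≥4 replicates, exposed to a dried acetone residue at 1.26 μg/cm^2 on a Coatasil-treated glass flask base. Held at 25±1° C, 75±5% humidity; mortality (immobile or unable to right) scored at 8, 24 and/or 48 h.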

[3] = tested on: Rhipicephalus sanguineus; assay: Dose response protocol for topical application on brown dog ticks (LD50); details: 24 h mortality, probit analysis
Procedure: e) Dose response protocol for topical application on brown dog ticks (Rhipicephalus sanguineus): The test determines the level of insecticidal activity of sample compounds or formulations when applied topically on brown dog ticks. Sample compounds were stored prior to use in a freezer (−5±1° C.), unless otherwise specified.
• Mortality: A tick is defined as dead after it gives no apparent response when touched lightly or gently breathed upon, while observed for 30 seconds. • LD50 (Lethal Dose 50): The dose of a topically applied treatment at which 50% of the dog ticks are killed. • Reference compound: To assess an experimental compound for significant acaricidal activity a single dose level is chosen, which is based upon known results from previous experiments using a commercially available active i.e., a reference compound. The reference compound selected is one in common use, and one that has a similar mode of action against the Brown Dog Tick (i.e., the test species), • Recovery container: A recovery container consists of a 500 ml round plastic container measuring 115 mm diameter and 70 mm height, with a tight fitting lid that has 10 small (˜1 mm) holes inserted for air exchange. A 90 mm diameter piece of filter paper was placed on the bottom of the container and moistened with 1 mL of distilled water.
Adult, mixed sex, Brown Dog Ticks (Rhipicephalus sanguineus) were reared as follows: (i) cultured, (ii) transferred unfed, to a testing laboratory, and (iii) then maintained under controlled conditions (i.e., temp. 18°±2° C., humidity 75±5% RH). The ticks used were selected for vigor prior to testing, i.e., capable of actively walking and responsive to being touched or gently breathed upon.
During the testing, the temperature was maintained at 25±1° C. and the humidity was ambient. Seven dose levels (concentrations) of sample compound, in the form of serial dilutions in acetone, were derived from a pilot study and covered a range that produced very low to very high mortality. Groups of ten ticks were treated topically (on the abdomen) with 1 μL of a single dose level of the sample compound. Each test was replicated four times, i.e., employing a total of 40 ticks per dose level of each sample compound. As a control, ten ticks were treated with solvent only (acetone) for each test. Following the treatment, the ticks were held in recovery containers maintained under appropriate rearing conditions for 24 hours. Mortality resulting from the treatments was recorded at 24 hours. […] Press, London (1971).]

[4] = tested on: Ctenocephalides felis; assay: Ctenocephalides felis adulticide assay: C. felis dose response (LC50)
Description: c) Ctenocephalides felis Adulticide Assay: C. felis Dose Response
The purpose of this example was to determine the LC50 when cat fleas were contacted with a glass surface treated with sample compounds or formulations prepared as described above. […] The test species was the cat flea (Ctenocephalides felis). The strain used was obtained from external suppliers as pupae and held in the laboratory under testing conditions until the adults had emerged. Fifteen (15) fleas were used in a minimum of four replicates for each dose level (total of 60 fleas per dose level). The insects were selected to be in the adult life stage, aged between 3 and 7 days post emergence.
The compounds to be tested were dissolved in acetone just prior to testing. Samples of compounds were stored in a refrigerator (5±1° C.) unless otherwise specified. During the mortality testing, the temperature was maintained at 25±1° C. Humidity was maintained at 75±5%. The base (area=159 mm^2) of a 100 mL glass Erlenmeyer (conical) flask provided the treatment surface. Flasks were pretreated with Coatasil™ glass treatment to maximise bio-availability of test compounds by preventing them from binding to the glass surface.
The base of the 100 mL Erlenmeyer flask was treated with 0.5 mL of test sample in acetone and gently swirled. This volume was sufficient to cover the base of the flask. Flasks were left to dry for 24 hours before flea exposure. Adult cat fleas were lightly anaesthetised by cooling and then placed into a sorting chamber, which allowed fleas to revive and jump into the Erlenmeyer flasks. Fifteen (15) adult cat fleas were collected in each flask. The top of the flasks were then covered in Parafilm™ and small holes made to allow gas exchange. A 0.5 mL volume of acetone was applied to the base of an Erlenmeyer flask and the testing proceeded in the same manner described above. Cat fleas in the treatment containers were held under testing conditions for 24 hours. Mortality resulting from the treatments was recorded at 8 and 24 hours.

[5] = tested on: Rhipicephalus sanguineus; assay: Rapid screening protocol for topical application on brown dog ticks (% mortality); details: data from laboratory 2
Outline: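 Mixed-sex unfed adult ticks each received 1 μL test sample in acetone on the abdomen at a single screening dose chosen above the reference LD90 (fipronil 10 μg/tick), with acetone-only controls; 4 replicates of 10 ticks. Held 24 h at 25±1 °C; ticks unresponsive to light touch over 1 min scored dead, pooled as % mortality.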

| Compound | H. contortus LD99 [1] [ppm] | R. sanguineus LD50 [3] [μg/tick] | C. felis Mortality (%) 8 h [2] [%] | C. felis Mortality (%) 24 h [2] [%] | C. felis LC50 [4] [ppm] | R. sanguineus Mortality (%) 24 h [5] [%] | further results |
| --- | --- | --- | --- | --- | --- | --- | --- |
| Cn1ccc(-c2cc(Cl)ccc2NS(=O)(=O)C(F)(F)F)n1 | – | – | – | – | – | – | melting point: 196 to 197 °C |
| CC(=NNc1ccc(C(F)(F)F)cc1)c1cc(Cl)ccc1NS(=O)(=O)C(F)(F)F [Compound 1, N-[2-[1-(4-trifluoro-methylphenyl)hydrazono]ethyl-4-chlorophenyl]-trifluoromethanesulfonamide] | 3.8 | – | – | – | – | – | – |
| CCC(=NNc1ccc(C(F)(F)F)cc1)c1cc(Cl)ccc1NS(=O)(=O)C(F)(F)F [Compound 2] | 6 | – | – | – | – | – | – |
| CC(=NNc1cccc(Cl)c1Cl)c1cc(Cl)ccc1NS(=O)(=O)C(F)(F)F [Compound 3] | 1.5 | – | – | – | – | – | – |
| CC(=NNc1ccc(Cl)cc1Cl)c1cc(Cl)ccc1NS(=O)(=O)C(F)(F)F [Compound 4] | 0.63 | – | – | – | – | – | – |
| CC(=NNc1ccc(Cl)c(Cl)c1)c1cc(Cl)ccc1NS(=O)(=O)C(F)(F)F [Compound 5] | 3.3 | – | – | – | – | – | – |
| CC(=NNc1cc(Cl)cc(Cl)c1)c1cc(Cl)ccc1NS(=O)(=O)C(F)(F)F [Compound 6] | 3.5 | – | – | – | – | – | – |
| CC(=NNc1cc(Cl)ccc1Cl)c1cc(Cl)ccc1NS(=O)(=O)C(F)(F)F [Compound 7] | 0.94 | – | – | – | – | – | – |
| CC(=NNc1ccc(Br)cc1)c1cc(Cl)ccc1NS(=O)(=O)C(F)(F)F [Compound 8] | 7.5 | – | – | – | – | – | C. felis Mortality (%) 8 h ([2]; 8 h, data from laboratory 2): 12^B % |
| COc1ccc(NN=C(C)c2cc(Cl)ccc2NS(=O)(=O)C(F)(F)F)cc1 [Compound 10] | >15 | – | – | – | – | – | – |
| CC(=NNC(=O)c1ccccc1)c1cc(Cl)ccc1NS(=O)(=O)C(F)(F)F [Compound 11] | >15 | – | – | – | – | – | – |
| CCC(=NNc1cccc(Cl)c1Cl)c1cc(Cl)ccc1NS(=O)(=O)C(F)(F)F [Compound 13, N-[2-[1-(2,3-dichlorophenyl)hydrazono]propyl-4-chlorophenyl]-trifluoromethanesulfonamide] | 3 | – | – | – | – | – | – |
| CCC(=NNc1ccc(Cl)c(Cl)c1)c1cc(Cl)ccc1NS(=O)(=O)C(F)(F)F [Compound 14] | 3.8 | – | – | – | – | – | – |
| CCC(=NNc1ccc(Br)cc1)c1cc(Cl)ccc1NS(=O)(=O)C(F)(F)F [Compound 15] | 3.8 | – | – | – | – | – | – |
| CCC(=NNc1cc(Cl)cc(Cl)c1)c1cc(Cl)ccc1NS(=O)(=O)C(F)(F)F [Compound 16] | 2.8 | – | – | – | – | – | – |
| CCC(=NNc1ccc(Cl)cc1Cl)c1cc(Cl)ccc1NS(=O)(=O)C(F)(F)F [Compound 18] | 0.47 | – | – | – | – | – | C. felis Mortality (%) 8 h ([2]; 8 h, data from laboratory 2): 5^B % |
| CCC(=NNc1cc(Cl)ccc1Cl)c1cc(Cl)ccc1NS(=O)(=O)C(F)(F)F [Compound 19] | 0.94 | – | – | – | – | – | – |
| CCC(=NN1CCCCC1)c1cc(Cl)ccc1NS(=O)(=O)C(F)(F)F [Compound 130] | – | 1.08 | 34 | 91 | 2.36 | 98 | – |
| CCN(N=C(C)c1cc(Cl)ccc1NS(=O)(=O)C(F)(F)F)C(=O)OC [Compound 139] | – | 0.39 | 97 | 100 | 5.14 | 100 | – |
| CCC(=NN(CC)C(=O)OC)c1cc(Cl)ccc1NS(=O)(=O)C(F)(F)F [Compound 140] | – | 0.28 | 89 | 100 | 3.70 | 100 | – |
| CC(=NN(C)c1cccc(C(F)(F)F)c1)c1cc(Cl)ccc1NS(=O)(=O)C(F)(F)F [Compound 203] | – | 0.68 | 11 | 98 | 1.30 | 95 | – |
| C/C(=N\N(C)C1CCCC1)c1cc(Cl)ccc1NS(=O)(=O)C(F)(F)F [Compound 211] | – | 1.01 | 12 | 85 | 1.9 | 98 | – |
| C/C(=N\N(C)C1CCCCC1)c1cc(Cl)ccc1NS(=O)(=O)C(F)(F)F [Compound 215] | – | 1.29 | 8 | 100 | 2.54 | 73 | – |
| CC(=O)N(CCC#N)/N=C(\C)c1cc(Cl)ccc1NS(=O)(=O)C(F)(F)F [Compound 221] | – | 0.53 | 15 | 100 | 2.2 | 90 | – |
| C/C(=N\N(CCC#N)C(=O)c1ccccc1)c1cc(Cl)ccc1NS(=O)(=O)C(F)(F)F [Compound 222] | – | 0.56 | 5 | 89 | 2.64 | 88 | – |
| CCCCCC(=O)N(CCC#N)/N=C(\C)c1cc(Cl)ccc1NS(=O)(=O)C(F)(F)F [Compound 224] | – | 0.71 | 3 | 100 | 3.54 | 100 | – |
